Experimental data: paper PMC10530836, “Synthesis, Molecular Docking, and Biological Evaluation of Novel Anthranilic Acid Hybrid and Its Diamides as Antispasmodics” (International Journal of Molecular Sciences, 2023)
pIC50: −log10 of the molar value.

Tests used:
[1] = tested on: Klebsiella pneumoniae ATCC 13883; assay: Antimicrobial activity, agar well diffusion; type: cell-based; details: Dose 0.6 mg/disk, dwell = 6 mm
human albumin = molecular target: T1, human albumin (Homo sapiens, UniProt P02768); assay: Inhibition of albumin denaturation (anti-inflammatory activity); type: biochemical; details: heat-induced denaturation
T1 construct: purchased Octapharma (IP) SPRL Albunorm 20
Method: Anti-denaturation assay was conducted as described by Kumari et al. with slight modifications. The reaction mixture consisted of 0.5 mL of 5% aqueous solution of human albumin (Albunorm 20, Octapharma (IP) SPRL, 1070 Anderlecht, Belgium) and 0.2 mL of the tested compound, dissolved in DMSO, at different concentrations (20–500 μg/mL). The samples were incubated at 37 °C for 15 min. After that, 2.5 mL phosphate-buffered saline (pH 6.3) was added to each tube and the samples were heated for 30 min to 80 °C and then cooled for 5 min. Turbidity was measured spectrophotometrically at 660 nm (Cary 60 UV-Vis, Agilent Technologies, Santa Clara, CA, USA). For the blank sample, a mixture of 2.5 mL buffer and 0.2 mL DMSO was used instead of the compounds, while the product control test lacked the compounds’ concentration having 0.5 mL serum albumin, and 2.5 mL buffer only. The percentage inhibition of protein denaturation was calculated as follows:Percentage of inhibition denaturation = (Absorbancecontrol − Absorbancesample) / Absorbancecontrol × 100
The control represents 100% protein denaturation.
Commercially available over-the-counter non-steroidal anti-inflammatory drugs diclofenac sodium and acetylsalicylic acid were used for comparison. Their anti-inflammatory effect was determined as a percentage of inhibition of albumin denaturation following the same protocol as for the novel compounds.

[2] = tested on: gastric smooth muscle preparations (SMPs) from Wistar rats; assay: Ex vivo smooth muscle relaxant activity; set-up: species or system rat; details: for Tonic relaxation: 5 × 10^−5 mol/L, SM pre-contracted with 1 × 10^−7 mol/L CCh
Source text: The utilization of an SM preparation from the corpus of a rat stomach that had been pharmacologically pre-contracted was the main goal of our work. The excitatory neurotransmitter acetylcholine (ACh) in the enteric nervous system is appropriate for this purpose. It affects the digestive system by increasing the amplitude of digestive contractions and peristalsis in the stomach. We evaluated the viability of the SM using their stimulatory impact. Via muscarinic (M2 and M3) receptors, ACh and its counterpart cholinergic agonist carbachol (CCh, carbamylcholine) cause excitatory motor responses in GI SM cells. Unlike ACh, which breaks down quickly, CCh has a long-lasting response. Therefore, we used CCh to start the induced muscle contraction. […] A persistent, prolonged tonic contraction that is brought on by the extracellular inflow of Ca^2+ into SM cells occurs next. The relaxation effects of the tested compounds 3 and 4a–e were investigated by cumulative addition of the tested substances in concentrations of 1 × 10^−7, 5 × 10^−7, 1 × 10^−6, 5 × 10^−6, 1 × 10^−5, 5 × 10^−5, and 1 × 10^−4 mol/L at the plateau of the CCh-induced contraction. In order to measure relaxation, the percent decrease in contractile tension from the 1 × 10^−7 mol/L CCh-induced maximum was used. All subsequent reactions to chemicals were reported as a percentage of the submaximal SM contractile responses elicited by CCh, which were taken as 100% values and expressed as a base value for all subsequent responses (Figure 10A). Results were presented as mean ± SD.
SMPs with dimensions 1.0–1.5 mm wide and 10–12 mm long were obtained from adult male Wistar rats weighing about 270 g. […]
The pH of the solution was measured before each experiment using a pH-meter HI5521 (Hanna Instruments, Smithfield, RI, USA). […]
Experiments were performed to investigate the cumulative dose-dependent relaxation effects of compounds 3 and 4a–e on gastric SMPs, pre-contracted with CCh (1 × 10^−^7 mol/L). The CA of the SMPs and the changes in substance-evoked reactions were detected isometrically. […]

T1 sequence (P02768 25-609): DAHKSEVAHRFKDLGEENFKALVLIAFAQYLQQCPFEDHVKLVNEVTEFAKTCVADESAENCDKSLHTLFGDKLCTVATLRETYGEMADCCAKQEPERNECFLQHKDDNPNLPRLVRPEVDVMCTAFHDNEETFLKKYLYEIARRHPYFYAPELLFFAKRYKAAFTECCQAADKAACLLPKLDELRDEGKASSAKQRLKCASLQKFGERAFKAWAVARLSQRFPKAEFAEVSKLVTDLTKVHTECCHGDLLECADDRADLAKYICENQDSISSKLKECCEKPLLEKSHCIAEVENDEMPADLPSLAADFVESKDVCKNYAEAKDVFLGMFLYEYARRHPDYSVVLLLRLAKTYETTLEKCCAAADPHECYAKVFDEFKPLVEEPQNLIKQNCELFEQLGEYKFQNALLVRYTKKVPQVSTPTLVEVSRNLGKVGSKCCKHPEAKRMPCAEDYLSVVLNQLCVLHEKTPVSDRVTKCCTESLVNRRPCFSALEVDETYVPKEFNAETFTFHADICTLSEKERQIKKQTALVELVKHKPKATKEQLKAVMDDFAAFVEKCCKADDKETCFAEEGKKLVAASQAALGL

Row | Structure (SMILES) | Inhibition Zones [1] [mm] | pIC50 (human albumin) | Tonic relaxation [2] [%] | effect on amplitude of spontaneous contractions ([2]; submaximal concentration of 5 × 10^−5 mol/L)
1 | Nc1ccccc1C(=O)NCCc1cccc(Cl)c1 [Compound 3, 2-amino-N-(3-chlorophenethyl)benzamide] | 8 | 2.62 | 59 | more than 50%
2 | CC(=O)Nc1ccccc1C(=O)NCCc1cccc(Cl)c1 [Compound 4a, 2-acetamido-N-(3-chlorophenethyl)benzamide] | 14 | – | 52 | –
3 | O=C(Nc1ccccc1C(=O)NCCc1cccc(Cl)c1)c1ccccc1 [Compound 4b, 2-benzamido-N-(3-chlorophenethyl)benzamide] | – | 2.71 | – | –
